Patent US12662458B2, “Solid forms of a compound” (Denali Therapeutics Inc., priority 2020, dated 2026)
Entries after “also recorded” stand apart in the source; their conditions may differ.

Experiments:
[1] = test system: ISR pathway (H4 ATF4-NLuc cell line); test: ATF4 Nano Luciferase reporter integrated stress response (ISR) assay; assay type: cell-based; details: Homo sapiens; H4 ATF4-NLuc (clone 17) cells, 50 um sodium arsenite 6 hours, luminescence
Description: Cellular stress leads to activation of the integrated stress response pathway through one of four eukaryotic initiation factor 2α kinases and halts global translation, while allowing for the translation of select transcripts like ATF4 (activating transcription factor 4) that are important for the response to cellular stress. During normal conditions, small open reading frames (ORFs) in the 5′ UTR of ATF4 occupy the ribosome and prevent translation of the coding sequence of ATF4. During stress conditions however, the ribosome scans past these upstream ORFs and preferentially begins translation at the coding sequence of ATF4. In this way, the translation, and thus protein level of ATF4 is a readout of ISR pathway activation. Thus, a fusion of the uORFs and the beginning of the coding sequence of ATF to a common cellular reporter like nano-luciferase allows for a sensitive and high-throughput readout of ISR pathway activity.
Compound I, or any of its forms described herein, may be tested in the following assay. […] We utilized this cell line to generate an integrated stress response (ISR) assay to evaluate the activity of ISR pathway inhibitors via luminescence readout. […]

Vacuum drying of Form B = assay type: physicochemical; details: vacuum drying at room temperature
Description: A 1,4-dioxane solution of Form A was prepared by dissolving 20 mg in 0.2-1.0 mL of 1,4-dioxane until clear solution was obtained. Then, water was added while maintaining magnetic agitation until precipitate appeared. […] XRPD data was obtained on the wet-cake prior to drying.
Form B can only be prepared in a location where Form C has rigorously been excluded, otherwise the conditions to prepare Form B (described above) will instead produce Form C, the most thermodynamically stable form identified.

Structure (SMILES) | IC50 [1] [µM] | form after vacuum drying (Vacuum drying of Form B)
O=C(COc1ccc(Cl)cc1)NC12CC(c3nnc([C@H]4C[C@@H](OC(F)(F)F)C4)o3)(C1)C2 [Compound I, 2-(4-chlorophenoxy)-N-[3-[5-[cis-3-(trifluoromethoxy)cyclobutyl]-1,3,4-oxadiazol-2-yl]-1-bicyclo[1.1.1]pentanyl]acetamide] | < 1 | 
O=C(COc1ccc(Cl)cc1)NC12CC(c3nnc([C@H]4C[C@@H](OC(F)(F)F)C4)o3)(C1)C2 [Form B, 2-(4-chlorophenoxy)-N-[3-[5-[cis-3-(trifluoromethoxy)cyclobutyl]-1,3,4-oxadiazol-2-yl]-1-bicyclo[1.1.1]pentanyl]acetamide] |  | converted to Form A; also recorded: desolvates to Form A
